Results as given in PubChem BioAssay (NCI).
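These data come from cells grown in 96-well plates and exposed to compound for 48 hours at five concentrations. Definition used: TGI = concentration required for complete inhibition of growth.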

Assays:
Assay in all cases: NCI-60 cell line screen, 48 h
[1] = tested on: OVCAR-4 ovarian
[2] = tested on: HOP-62 NSCLC
[3] = tested on: SNB-19 CNS
[4] = tested on: NCI-H522 lung
[5] = tested on: 786-0 renal
[6] = tested on: MALME-3M melanoma
[7] = tested on: IGROV1 ovarian
[8] = tested on: MOLT-4 leukemia
[9] = tested on: HCT-116 colon
[10] = tested on: DU-145 prostate

| Structure (SMILES) | TGI [1] [µM] | TGI [2] [µM] | TGI [3] [µM] | TGI [4] [µM] | TGI [5] [µM] | TGI [6] [µM] | TGI [7] [µM] | TGI [8] [µM] | TGI [9] [µM] | TGI [10] [µM] |
| --- | --- | --- | --- | --- | --- | --- | --- | --- | --- | --- |
| COc1cc(C2c3cc4c(c(O)c3C(=O)C3CCC(=O)N32)OCO4)cc(OC)c1OC (stereo not given) | > 100 | > 100 | > 100 | 38.9 | > 100 | > 100 | > 100 | > 100 | > 100 | > 100 |
| COc1cccc(C(=O)C(O)c2cccc(OC)c2OC)c1OC (stereo not given) | > 100 | > 100 | > 100 | > 100 | > 100 | > 100 | > 100 | > 100 | > 100 | > 100 |
| Fc1ccccc1N=c1oc2ccc(Br)cc2cc1-c1nc2ccccc2[nH]1 | > 37.3 | 28.1 | 21.9 | 6.82 | 8.5 | 14.9 | > 42.1 | > 100 | > 31.8 | > 42.5 |
| O=C(CSCC(=O)N/N=C\c1cc(Br)cc(Br)c1O)N/N=C\c1cc(Br)cc(Br)c1O | > 100 | > 100 | > 100 | 50.9 | > 100 | 42.5 | 66.2 | 74.7 | > 100 | > 100 |
| COC(=O)C1(C(=O)OC)CC2=C(S(=O)(=O)c3ccccc3)C[C@@H](C#N)[C@H]2C1 | > 100 | > 100 | > 100 | > 100 | > 100 | > 100 | > 100 | > 100 | > 100 | > 100 |
| CCOC(=O)C1C(=O)C=C(c2cc(C)ccc2O)CC1c1cccc(Br)c1 (stereo not given) | 5.17 | > 100 | 32.5 | 35.1 | 39.8 | 42.4 | 39.5 | 43.7 | 40.7 | > 100 |
| Cc1[nH]c(=O)nc2c1C(=O)N(C(C)C)C(NC(C)C)S2 (stereo not given) | > 100 | > 100 | > 100 | > 100 | > 100 | > 100 | > 100 | > 100 | > 100 | > 100 |
| Cc1ccc(-c2cn3c(nc4ccccc43)c(C)n2)cc1 | > 100 | > 100 | > 100 | > 100 | > 75.5 | > 67.8 | > 31.6 | > 100 | > 100 | > 100 |
| COC(=O)[C@H]1ON2O[C@H](OC3CCCC[C@@H]3c3ccccc3)C[C@@H]3CC[C@H]1[C@@]32C (stereo not given in full) | > 100 | > 100 | > 100 | > 100 | > 100 | > 100 | > 100 | > 100 | > 100 | > 100 |
| O=C(O)CCCCCNC(=O)CCC(CN(CC(=O)OCc1ccccc1)CC(=O)OCc1ccccc1)N(CC(=O)OCc1ccccc1)CC(=O)OCc1ccccc1 (stereo not given) | 32.5 | 41 | 32.9 | 42.1 | 34.1 | 39.5 | 33.8 | 37.2 | 31.2 | 33.7 |
| CN(C)CCCNc1ccc2nnn3c4ccc([N+](=O)[O-])cc4c(=O)c1c23 | 3.92 | 8.51 | 15.3 | 17 | 13 | 14.5 | 13.3 | 5.63 | 12.3 | 12.1 |
| C=CCn1c(=O)c(-c2ccccc2)c(O)c2ccccc21 | > 100 | > 100 | > 100 | > 100 | > 100 | > 100 | > 100 | > 100 | > 100 | > 100 |
| Cc1cc(C)n(CN(Cn2nc(C)cc2C)c2ccc(N(Cn3nc(C)cc3C)Cn3nc(C)cc3C)cc2)n1 | 43 | 52.7 | 64.5 | 42.5 | 43.4 | 41.8 | 50.7 | > 100 | 31.3 | 58.3 |
| O=C1NC(N2CCCC(CO)C2)=N/C1=C\c1ccc(O)cc1 (stereo not given) | > 100 | > 100 | > 100 | > 100 | > 100 | > 100 | > 100 | > 100 | > 100 | > 100 |
| N#Cc1c(C#N)c(-c2ccco2)n(/N=C/c2ccco2)c1N | > 100 | > 100 | 67.5 | > 100 | > 100 | > 100 | > 100 | > 100 | > 100 | > 100 |
| CC(C)Oc1c(O)c2c3c(oc(=O)n3C=CC2c2ccccc2F)c1OC(C)C (stereo not given) | > 100 | > 100 | > 100 | > 100 | > 100 | > 100 | > 100 | 59.3 | 66.7 | > 100 |
| CCOc1c(OC)cc(CNNc2nccs2)cc1OC | > 100 | > 100 | > 100 | > 100 | > 100 | > 100 | > 100 | > 100 | > 100 | > 100 |
| CC1(C)CC(=O)C2=C(C1)OC1=C(CC(C)(C)CC1=O)C2c1ccccc1Cl (stereo not given) | > 100 | > 100 | > 100 | > 100 | > 100 | > 100 | > 100 | > 100 | > 100 | > 100 |

| Structure (SMILES) | TGI [1] [µM] | TGI [2] [µM] | TGI [3] [µM] | TGI [4] [µM] | TGI [5] [µM] | TGI [6] [µM] | TGI [7] [µM] | TGI [8] [µM] | TGI [9] [µM] | TGI [10] [µM] |
| --- | --- | --- | --- | --- | --- | --- | --- | --- | --- | --- |
| O=S(=O)(N1CCCCN(S(=O)(=O)C(F)(F)F)CCCN(S(=O)(=O)C(F)(F)F)CCCN(S(=O)(=O)C(F)(F)F)CCCCN(S(=O)(=O)C(F)(F)F)CCCN(S(=O)(=O)C(F)(F)F)CCC1)C(F)(F)F | > 100 | > 100 | > 100 | > 100 | 35.3 | 49.5 | > 100 | > 100 | > 100 | > 100 |
| O=C1N[C@@H](c2c[nH]c3ccc(Br)cc23)C(=O)N[C@H]1c1c[nH]c2ccc(Br)cc12 | 24 | 27 | 49.2 | 24 | 25.6 | 28.8 | 29.4 | 20.1 | 21.8 | 27.3 |
| CC(=O)CC(=O)Nn1c(-c2cccs2)nc2ccc(I)cc2c1=O | > 100 | > 100 | > 100 | > 87.5 | > 100 | > 93.2 | > 100 | > 100 | > 100 | > 96.6 |
| Clc1ccc(CCn2ccc3ccccc32)c(Cl)c1 | > 100 | > 100 | > 100 | > 100 | > 100 | > 100 | > 100 | > 100 | > 100 | > 100 |
| COC(=O)C(I(OS(=O)(=O)c1ccc(C)cc1)c1ccccc1)=P(c1ccccc1)(c1ccccc1)c1ccccc1 | 27 | 36.8 | > 100 | 27.7 | 28.9 | 21.6 | 37.7 | 84.4 | 30.2 | 32.4 |
| CCC1(CC)C(=O)N(C(=O)c2ccc(Cl)cc2)N(C(=O)c2ccccc2Cl)C1=O | > 100 | > 100 | > 100 | 48.1 | > 100 | > 100 | 16.3 | 52.2 | > 100 | > 100 |
| COC[C@H](Cc1ccccc1)N=Cc1ccccc1 | > 100 | > 100 | > 100 | > 100 | > 100 | > 100 | > 100 | > 100 | > 100 | > 100 |
| Cc1ccc(-n2cc(-c3ccc(Cl)cc3)c3c(NNC(=S)NCc4ccccc4)ncnc32)cc1 | > 100 | 85.4 | > 100 | 13.2 | 51.1 | > 100 | 54.4 | > 100 | 16.8 | > 100 |
| O=C1c2c(ccc3c2CCCC3)CC12Cc1ccccc1C2 | > 100 | > 100 | > 100 | 56.7 | > 100 | 34.9 | > 100 | > 35.4 | 26.1 | > 100 |
| COc1c(-c2ccc3c(c2)OCO3)oc2cc3c(c(OC)c2c1=O)OCO3 | 70.1 | 34.9 | 43.4 | 52.6 | > 100 | 67.6 | 55.1 | > 100 | 39.3 | > 100 |
| CC(C)(C)C(=O)C(C#N)C(=O)C(C)(C)C | > 100 | > 100 | > 100 | > 100 | > 100 | > 100 | > 100 | > 100 | > 100 | > 100 |
| CSc1nc(Cl)c2c(n1)Sc1ncnn1C2O (stereo not given) | 29.6 | 41.1 | 45.2 | 4.23 | 9.08 | 8.22 | 34.2 | 27.1 | 17.1 | 19.2 |
| COC(=O)c1cc(CNCCc2c[nH]c3ccccc23)on1 | > 83.3 | > 100 | > 100 | 73.5 | > 94.6 | > 100 | > 100 | > 100 | > 100 | > 100 |
| CCCCCCc1cc2cc(C(=O)Nc3cccc(C(F)(F)F)c3)c(=N)oc2cc1O | 14.3 | 5.03 | > 44.3 | 2.67 | 6.27 | 6.2 | 11.1 | 4.19 | 4.57 | 3.3 |
| COc1cc(OC)cc(N(C)Cc2cnc3nc(N)nc(N)c3c2C)c1 | > 100 | > 36.1 | > 100 | 43.6 | > 100 | > 100 | > 100 | > 100 | > 100 | > 100 |
| C[C@H]1C(=O)C2=C[C@H]1CCC(=O)[C@]1(C)CCCC(C)(C)[C@H]1C[C@H]2O | > 100 | > 100 | > 100 | 20.6 | 32.5 | 43.5 | > 100 | > 100 | > 100 | 96.8 |
| COc1ccc(N=Nc2ccc3oc(=O)c(C(=O)Nc4ccc(OC)cc4)cc3c2)cc1 | 75.3 | 30.3 | 83.1 | 75.6 | 44.5 | 52.7 | 44 | 34.9 | 23.8 | 53.9 |
